# Results: patent US10500139B2, “Formulations and materials with cationic polymers” (UCL BUSINESS LTD, priority 2013, dated 2019)
# Experiment: CHX and PLS release into storage solution
# Format: physicochemical
# Conditions: in water over a period of 6 weeks
# Experimental: CHX and PLS release into sample storage solutions were quantified using UV spectrometry (Mehdawi 2009, Zhao 2011) and HPLC respectively.
# Reactive filler composites containing PLS were prepared as 1 mm thick composite discs. The fluid phase contained 70% UDMA, 25% TEG-DMA, 5% HEMA, 300 ppm BHT, DMPT 0.5%, BP 0.5%. 25 wt % of this fluid phase was combined with 75 wt % powder filler. The filler contained polylysine (1 or 10 wt %), chlorhexidine (0 or 10 wt %), MCPM/TCP (CaP=10 or 20 wt %) and the remainder glass particles (Sci Pharm).
substance,measurement,value
ε-poly-L-lysine [PLS],percentage released from 1 mm thick composite discs,over 70%
